Like-named read-outs stand apart in the source and are kept apart here.
Columns and labels:
HOP-62 = test: NCI 60 cell line five dose, Non-Small Cell Lung Cancer; assay type: cell-based, human; settings: for CC50: read-out: LC50 (the source's name)
IGROV1 = test: NCI 60 cell line five dose, Ovarian Cancer; assay type: cell-based, human
EKVX = test: NCI 60 cell line five dose, Non-Small Cell Lung Cancer; assay type: cell-based, human; settings: for CC50: read-out: LC50 (the source's name)

C=C1C(=O)O[C@H]2[C@H]1CC/C(COC(=O)CCC(=O)NCCCCCCCCNC(=O)CCC(=O)OC/C1=C/CC[C@@]3(C)O[C@H]3[C@H]3OC(=O)C(=C)[C@@H]3CC1)=C\CC[C@@]1(C)O[C@@H]21 [JVM 2-87, bis(((1aR,7aS,10aS,10bS,E)-1a-Methyl-8-methylene-9-oxo-1a,2,3,6,7,7a,8,9,10a,1b-decahydrooxireno[2′,3′:9,10]cyclodeca[1,2-b]furan-5-yl)methyl)4,4′-(octane-1,8-diylbis(azanediyl))bis(4-oxobutanoate)]
CC50 (KM12): 53.4 µM
CC50 (LOX IMVI): 5.56 µM
CC50 (NCI-H23): 42.6 µM
CC50 (A549/ATCC): 89.4 µM
CC50 (SF-295): 56.8 µM
CC50 (HCT-15): 43.2 µM
CC50 (HOP-92): 6.77 µM
CC50 (SK-MEL-5): 38.4 µM
CC50 (SNB-75): 26.9 µM
CC50 (NCI-H460): 66.2 µM
CC50 (CCRF-CEM): > 100 µM
CC50 (NCI-H522): 6.36 µM
CC50 (NCI/ADR-RES): > 100 µM
CC50 (M14): 8.02 µM
CC50 (OVCAR-5): 7.31 µM
CC50 (UACC-62): 8.94 µM
CC50 (OVCAR-3): 5.31 µM
CC50 (UO-31): 54 µM
CC50 (HS 578T): > 100 µM
CC50 (UACC-257): 16 µM
CC50 (MDA-MB-435): 7.58 µM
CC50 (MALME-3M): 8 µM
CC50 (COLO 205): 7.28 µM

C=C1C(=O)O[C@H]2[C@H]1CC/C(COC(=O)CCC(=O)NCCCCCCCCCNC(=O)CCC(=O)OC/C1=C/CC[C@@]3(C)O[C@H]3[C@H]3OC(=O)C(=C)[C@@H]3CC1)=C\CC[C@@]1(C)O[C@@H]21 [JVM 2-92, bis(((1aR,7aS,10aS,10bS,E)-1a-Methyl-8-methylene-9-oxo-1a,2,3,6,7,7a,8,9,10a,10b-decahydrooxireno[2′,3′:9,10]cyclodeca[1,2-b]furan-5-yl)methyl)4,4′-(nonane-1,9-diylbis(azanediyl))bis (4-oxobutanoate)]
CC50 (KM12): 50.2 µM
CC50 (LOX IMVI): 4.06 µM
CC50 (NCI-H23): 18.5 µM
CC50 (A549/ATCC): 82.6 µM
CC50 (SF-295): 52 µM
CC50 (HCT-15): 46 µM
CC50 (HOP-92): 6.64 µM
CC50 (SK-MEL-5): 9.37 µM
CC50 (SNB-75): 15.6 µM
CC50 (NCI-H460): 25.7 µM
CC50 (CCRF-CEM): > 100 µM
CC50 (NCI-H522): 5.63 µM
CC50 (NCI/ADR-RES): > 100 µM
CC50 (M14): 8.05 µM
CC50 (OVCAR-5): 7.06 µM
CC50 (PC-3): 29.6 µM
CC50 (UACC-62): 8.44 µM
CC50 (OVCAR-3): 5.3 µM
CC50 (UO-31): 45.6 µM
CC50 (HS 578T): > 100 µM
CC50 (T-47D): > 100 µM
CC50 (UACC-257): 32 µM
CC50 (MDA-MB-435): 7.25 µM
CC50 (MALME-3M): 8.93 µM
CC50 (COLO 205): 8.15 µM

C=C1C(=O)O[C@H]2[C@H]1CC/C(COC(=O)NCCCCNC(=O)OC/C1=C/CC[C@@]3(C)O[C@H]3[C@H]3OC(=O)C(=C)[C@@H]3CC1)=C\CC[C@@]1(C)O[C@@H]21 [JVM 3-54, bis(((1aR,7aS,10aS,10bS,E)-1a-Methyl-8-methylene-9-oxo-1a,2,3,6,7,7a,8,9,10a,10b-decahydrooxireno[2′,3′:9,10]cyclodeca[1,2-b]furan-5-yl)methyl)butane-1,4-diyldicarbamate]
GI50 (HOP-62): 3.84 µM
TGI (HOP-62): 1.4e-05 M
Percent Growth (HOP-62; Log10 Concentration −4.0): −82%
Percent Growth (HOP-62; Log10 Concentration −5.0): 14%
Percent Growth (HOP-62; Log10 Concentration −6.0): 101%
Percent Growth (HOP-62; Log10 Concentration −7.0): 95%
Percent Growth (HOP-62; Log10 Concentration −8.0): 94%
CC50 (HOP-62): 46.1 µM
GI50 (IGROV1): 3.32 µM
TGI (IGROV1): 1.24e-05 M
Percent Growth (IGROV1; Log10 Concentration −4.0): −76%
Percent Growth (IGROV1; Log10 Concentration −5.0): 8%
Percent Growth (IGROV1; Log10 Concentration −6.0): 96%
Percent Growth (IGROV1; Log10 Concentration −7.0): 104%
Percent Growth (IGROV1; Log10 Concentration −8.0): 101%
CC50 (IGROV1; read-out: LC50 (the source's name)): 48.6 µM
GI50 (EKVX): 3.69 µM
TGI (EKVX): 1.35e-05 M
Percent Growth (EKVX; Log10 Concentration −4.0): −98%
Percent Growth (EKVX; Log10 Concentration −5.0): 15%
Percent Growth (EKVX; Log10 Concentration −6.0): 96%
Percent Growth (EKVX; Log10 Concentration −7.0): 92%
Percent Growth (EKVX; Log10 Concentration −8.0): 97%
CC50 (EKVX): 37.3 µM

C=C1C(=O)O[C@H]2[C@H]1CC/C(COC(=O)NCCCCCCCCNC(=O)OC/C1=C/CC[C@@]3(C)O[C@H]3[C@H]3OC(=O)C(=C)[C@@H]3CC1)=C\CC[C@@]1(C)O[C@@H]21 [JVM 3-62, bis(((1aR,7aS, 10aS, 10bS, E)-1a-Methyl-8-methylene-9-oxo-1a,2,3,6,7,7a,8,9,10a,10b-decahydrooxireno[2′,3′:9,10]cyclodeca[1,2-b]furan-5-yl)methyl)octane-1,8-diyldicarbamate]
Percent Growth (HOP-62; Log10 Concentration −4.0): −80%
Percent Growth (HOP-62; Log10 Concentration −5.0): −64%
Percent Growth (HOP-62; Log10 Concentration −6.0): 76%
Percent Growth (HOP-62; Log10 Concentration −7.0): 103%
Percent Growth (HOP-62; Log10 Concentration −8.0): 103%
GI50 (HOP-62; molar): 1.53 µM
TGI (HOP-62; molar): 3.49E−6
CC50 (HOP-62; molar): 7.95 µM
Percent Growth (IGROV1; Log10 Concentration −4.0): −71%
Percent Growth (IGROV1; Log10 Concentration −5.0): −71%
Percent Growth (IGROV1; Log10 Concentration −6.0): 61%
Percent Growth (IGROV1; Log10 Concentration −7.0): 102%
Percent Growth (IGROV1; Log10 Concentration −8.0): 105%
GI50 (IGROV1; molar): 1.01 µM
TGI (IGROV1; molar): 2.61E−6
Percent Growth (EKVX; Log10 Concentration −4.0): −98%
Percent Growth (EKVX; Log10 Concentration −5.0): −99%
Percent Growth (EKVX; Log10 Concentration −6.0): 62%
Percent Growth (EKVX; Log10 Concentration −7.0): 90%
Percent Growth (EKVX; Log10 Concentration −8.0): 91%
GI50 (EKVX; molar): 1.19 µM
TGI (EKVX; molar): 2.44E−6
CC50 (EKVX; molar): 4.99 µM
